Earlier results in patent US20040229960A1, “Compositions and methods of administering tubulin binding agents for the treatment of ocular diseases” (priority 2001, published 2004).

Conditions: cited from earlier work

Compound: COc1ccc(/C=C\c2cc(OC)c(OC)c(OC)c2)cc1O [CA4, combretastatin A4]
- Solubility in water: essentially insoluble in water
